Measurements as given in publication PMC6838069, “Biochemical characterization and chemical validation of Leishmania MAP Kinase-3 as a potential drug target” (Scientific Reports, 2019).

Biological target: T1, LdMAPK3 (Leishmania donovani, UniProt A0A3S7WR45)
T1 construct: gene LdCL_100012100; pET-28a BamHI/HindIII, His6-tagged (~48 kDa on gel, tag not reported cut), E. coli BL21(DE3), Ni-NTA
T1 sequence (A0A3S7WR45 1-388): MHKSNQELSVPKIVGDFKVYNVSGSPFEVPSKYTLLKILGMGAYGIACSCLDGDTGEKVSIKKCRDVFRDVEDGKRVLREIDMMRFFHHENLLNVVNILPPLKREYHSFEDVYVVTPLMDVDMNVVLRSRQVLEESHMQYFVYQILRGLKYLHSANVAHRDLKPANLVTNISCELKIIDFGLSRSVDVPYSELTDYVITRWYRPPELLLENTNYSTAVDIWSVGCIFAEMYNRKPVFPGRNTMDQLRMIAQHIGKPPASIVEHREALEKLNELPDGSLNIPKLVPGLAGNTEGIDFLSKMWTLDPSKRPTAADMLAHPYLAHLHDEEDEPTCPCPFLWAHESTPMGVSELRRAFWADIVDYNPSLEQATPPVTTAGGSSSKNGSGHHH
Assay: Kinase-Glo Plus luminescent ATP depletion; Dixon plot
Assay type: biochemical

Row | Compound | Ki [µM]
1 | O=c1c(-c2ccc(O)cc2)coc2cc(O)cc(O)c12 [GEN, genistein] | 3.76 ± 0.28
2 | O=c1cc(-c2ccccc2)oc2cc(O)cc(O)c12 [CHY, 5,7-dihydroxyflavone] | 8.75 ± 0.11
